The text below walks through data of patent US20120321594A1, “METHODS OF CONTROLLING AXON OR DENDRITE DEVELOPMENT OF NEURONAL CELLS” (NEW YORK UNIVERSITY, priority 2011, published 2012).

Data set [1] deals with MAP2-positive dendrites of Xenopus spinal cord. Kind of data set: Whole-mount MAP2 immunohistochemistry of spinal cords (dendrite identity in vivo). Further details: species or system Xenopus laevis. The conditions noted are these: for MAP2-IR in the MO-injected side of spinal cords: stage 42, compared to the uninjected side.
In the next data set the test system is xCav2.3α1E. Nature of the data set: Whole-mount immunostaining of xCav2.3α1E expression in spinal cords. It counts as in vivo, Xenopus laevis.
A further data set concerns Cav2.3 channels. Kind of data set: Whole-cell Ca^2+ currents at growth cones of cultured xSCINs, isolated Cav2.3 (R-type) currents. It counts as cell-based, Xenopus laevis.
A further data set concerns Cav2.3α1E. Nature of the data set: Cav2.3α1E immunoreactivity in cultured xSCINs. Format: cell-based, Xenopus laevis. As to conditions: pre-treatment with the agent. How it is done: Sema3A and +CHX, respectively, indicate treatment with Sema3A (2 U·ml−1) for 10 min or with Sema3A (2 U·ml−1) for 10 min after a one-minute pre-administration of cycloheximide (25 μM). FIG. 16B is a graph showing a summary of Cav2.3α1E immunoreactivity (IR, AU) in each experimental condition. […] FIGS. 16D and 16E are immunofluorescence images (FIG. 16D) and summaries (FIG. 16E) of Cav2.3α1E IR in Xenopus spinal cords either without (Control) or with (+CHX) local injection of cycloheximide (2.5 mM). Cav2.3α1E IR was normalized against that of control animals. For uninjected controls, the right sides of spinal cords were normalized against the left sides. Scale bars, 20 μm; data are mean±s.e.m; (n) =number of cultures (150 to 200 neurons, FIG. 16B) spinal cords examined (FIG. 16E). Significant difference from the control is indicated (**p<0.01). […]

The next data set has as its system cultured xSCINs. Kind of data set: Neurite identity (tau-1 / MAP2 immunocytochemistry) of cultured xSCINs. Format: cell-based, Xenopus laevis. How it is done:
Capped messenger RNAs encoding NP1-0111, hSema3A, mCav2.3α1E, and green fluorescent protein (GFP) were synthesized with mMESSAGE mMACHINE (Ambion Inc.) and purified on NucAway™ Spin Columns (Ambion Inc.) as described by the manufacturer. […] Each blastomere was injected with 4 to 8 nl of 0.5 μg·ul^−1 NPI-0111, 0.5 μg·μl^−1 hSema3A, or 0.5 μg·μl^−mCav2.3α1E mRNA and 0.25 μg·μl^−1 GFP mRNA as an expression indicator. Primary Xenopus spinal neurons derived from developmental stage 26 embryos were cultured at 23° C.-25° C. for 16-20 hours and used for growth cone electrophysiology (FIGS. 2A-2E; FIGS. 3A-3C) and immunocytochemistry (FIGS. 4A and 4B). To examine the neurite identity and expression of functional AMPA receptor channels (FIGS. 5A-5C), cells were plated on cover glasses that had been coated for four to six hours each with poly-L-lysine (100 μg·ml^−1) and laminin (80 μg·ml^−1) and incubated for three to four hours at 23° C.-25° C. prior to use.
Sema3A (2 U·ml^−1) and netrin-1 (5 ng·ml^−1) were prepared as described (Nishiyama et al., “Membrane Potential Shifts Caused by Diffusible Guidance Signals Direct Growth-Cone Turning,” Nat. Neurosci. 11:762-771 (2008); Togashi et al., “Cyclic GMP-Gated CNG Channels Function in Sema3A-Induced Growth Cone Repulsion,” Neuron 58:694-707 (2008); Goshima, “A Novel Action of Collapsin: Collapsin-1 Increases Antero- and Retrograde Axoplasmic Transport Independently of Growth Cone Collapse,” J. Neurobiol. 33:316-328 (1997); Hong et al., “Calcium Signalling in the Guidance of Nerve Growth by Netrin-1,” Nature 403:93-98 (2000); Nishiyama et al., “Cyclic AMP/GMP-Dependent Modulation of Ca^2+ Channels Sets the Polarity of Nerve Growth-Cone Turning,” Nature 423:990-995 (2003); Hong et al., “A Ligand-Gated Association Between Cytoplasmic Domains of UNC5 and DCC Family Receptors Converts Netrin-Induced Growth Cone Attraction to Repulsion,” Cell 97:927-941 (1999), which are hereby incorporated by reference in their entirety). To test the conversion of the identities of individual neurites and for growth cone electrophysiology, 2,000 U/ml Sema3A (in micropipettes) was applied as a gradient. The biological activity of Sema3A (U·ml^−1) was evaluated using a collapse assay of chick DRG neurons (Goshima, “A Novel Action of Collapsin: Collapsin-1 Increases Antero- and Retrograde Axoplasmic Transport Independently of Growth Cone Collapse,” J. Neurobiol. 33:316-328 (1997), which is hereby incorporated by reference in its entirety). All pharmacological agents were bath-applied 30 min before experiments were performed unless otherwise indicated. Agonist and antagonists were purchased from Calbiochem, Peptide Institute, Sigma, and Tocris.

Data set [2] concerns tau-1-positive axons of Xenopus spinal cord. Set-up: species or system Xenopus laevis. The conditions noted are these: in vivo.
Data set [3] deals with MAP2 to tau-1 ratio in Xenopus spinal cords. Set-up: species or system Xenopus laevis. As to conditions: in vivo.
In data set [4] the test system is putative CINs of Xenopus spinal cord. Kind of data set: Imaging of individual spinal neurons (Texas Red dextran) in MO-injected spinal cords. It counts as in vivo, Xenopus laevis. As to conditions: stage 42 tadpole spinal cords.
The subject of the next data set is xSema3A. Kind of data set: Whole-mount immunostaining of xSema3A expression in spinal cords. The conditions noted are these: stage 30-32 spinal cords.
Setting [5] is: injected into hindbrain and spinal cord of stage 30-32 tailbuds.
Where [6] appears, read: xSema3A-A-MO in one side of spinal cords.
[7] abbreviates: xSCINs cultured on laminin, treated for three hours.

Like-named read-outs stand apart in the source and are kept apart here.

Method for Cav2.3 channels: To test the conversion of the identities of individual neurites and for growth cone electrophysiology, 2,000 U/ml Sema3A (in micropipettes) was applied as a gradient. […] All pharmacological agents were bath-applied 30 min before experiments were performed unless otherwise indicated.

Turning to `Nc1nc2c(nc(Br)n2[C@@H]2O[C@@H]3COP(=O)(O)O[C@H]3[C@H]2O)c(=O)[nH]1` [8-Br-cGMP], in data set [1] (setting [5]), the “MAP2-IR / dendrite formation after local administration” value (“MAP2-IR / dendrite formation” below) is “enhanced”. Further, the “rescue of dendrites in the absence of xCav2.3” value in [1] (local administration, xCav2.3α1E-A-MO (FIG. 15N)) is “failed to rescue dendrites”. In addition, the “expression of xCav2.3α1E after local administration” value in the data set with xCav2.3α1E (setting [5]) was “enhanced”. Also, in the data set on xCav2.3α1E (setting [6]), the “expression of xCav2.3α1E after local administration in the absence of Sema3A” value (from here on “expression of xCav2.3α1E … of Sema3A”) is “induced the expression of xCav2”.
Consider `O=c1onc2cnc3ccccc3n12` [ODQ, 1H-[1,2,4]oxadiazolo[4,3-a]quinoxalin-1-one], for which the “MAP2-IR / dendrite formation” value in data set [1] (setting [5]) is given as “abolished”. Moreover, in [1] (local administration, A-MO in one side of spinal cords (FIGS. 15L, 15M)), the “appearance of dendrites in the presence of the xCav2.3” value is given as “prevented the appearance of dendrites”. Moreover, in the data set on xCav2.3α1E (setting [5]), the “expression of xCav2.3α1E after local administration” value was “abolished”. Moreover, in the data set with xCav2.3α1E (setting [6]), the “expression of xCav2.3α1E … of Sema3A” value was “significant reduction”. Also, the “Rp-8-pCPT-cGMPS-induced Cav2.3 currents in the presence of the agent” value in the data set with Cav2.3 channels (agent as pretreatment / in the bath) is given as “not affected”. Also, the “Sema3A-induced Cav2.3 currents in the presence of the agent” value (“Sema3A-induced Cav2.3 currents” for short) with Cav2.3 channels (gradient of Sema3A on xSCIN growth cones, agent added) is on record as “prevented”.
For the compound `Nc1nc2c(nc(Sc3ccc(Cl)cc3)n2[C@@H]2O[C@@H]3CO[P@@](=O)(S)O[C@H]3[C@H]2O)c(=O)[nH]1` [Rp-8-pCPT-cGMPS], in [1] (in vivo), the “MAP2-IR / dendrite formation” value is recorded as “drastically reduced” and the “appearance of dendrites in the presence of the xCav2.3” value is reported as “prevented the appearance of dendrites”. Also, in the data set on xCav2.3α1E (in vivo), the “expression of xCav2.3α1E after local administration” value was “significant increase” and the “expression of xCav2.3α1E … of Sema3A” value was “induced the expression of xCav2”. Also, in the data set with Cav2.3 channels, the “Cav2.3 currents induced by a gradient of the agent alone” value is “induced Cav2.3 currents” and the “Sema3A-induced Cav2.3 currents” value is given as “pre-empted”.
On to `C[C@@H]1C[C@@H]([C@H](O)CC2CC(=O)NC(=O)C2)C(=O)[C@@H](C)C1` [cycloheximide], for which the “expression of xCav2.3α1E after local administration” value with xCav2.3α1E (in vivo) is “eliminated”. The “Rp-8-pCPT-cGMPS-induced Cav2.3 currents in the presence of the agent” value in the data set with Cav2.3 channels is “eliminated”. The “Sema3A-induced expression of Cav2.3 in vitro after pre-treatment” value in the data set with Cav2.3α1E is “eliminated”.
As for `COCCOC(=O)C1=C(C)NC(C)=C(C(=O)OC(C)C)C1c1cccc([N+](=O)[O-])c1` (centres unmarked) [nimodipine], the “MAP2-IR / dendrite formation” value in [1] (in vivo) is “no significant effect”.
“Netrin-1: another secreted factor that effects axon initiation in C. elegans”: in the data set with cultured xSCINs (setting [7]), the MAP2-IR entry is given as “no significant effect” and the “tau-1 immunoreactivity (IR)” value is “no significant effect”.
As to “SNP-1: the soluble Npn-1 ectodomain peptide that sequesters Sema3A”, in the data set with cultured xSCINs (agent bath-applied with Sema3A), the “Sema3A-induced conversion of tau-1-positive axons to MAP2-positive dendrites in the presence of the agent” value (“Sema3A-induced conversion” for short) is on record as “prevented”.
Consider “SNX-482 (GVDKAGCRYMFGGCSVNDDCCPRLGCHSLFSYCAWDLTFSD)”, for which, in data set [1] (in vivo), the “MAP2-positive dendrites after local administration, 45 μM” value is recorded as “eliminated almost all dendrites” and the “MAP2-positive dendrites after local administration, lower doses” value is on record as “significant reductions”. Further, in the data set with cultured xSCINs, the “Sema3A-induced conversion” value is “prevented”. The “Sema3A-induced Cav2.3 currents” value in the data set on Cav2.3 channels is recorded as “abolished”. The “tau-1-IR after local administration into the spinal cord” value in data set [2] was “significant increase”. Further, in data set [3], the “ratio of MAP2 to tau-1 in total protein extracted from spinal cords” value is listed as “significantly lower”.
With “xCav2.3α1E-A-MO: antisense morpholino oligonucleotide against xCav2.3α1E mRNA (SEQ ID NO: 7) (antisense CTATGTGATATGATTATTTATGACC; all phosphorodiamidate morpholino (PMO))”, the “neurites of individual putative CINs in the MO-treated side” value in data set [4] is “multiple axon-like neurites”. In data set [1], the “MAP2-IR in the MO-injected side of spinal cords” value was “significantly reduced”. Further, the “tau-1-IR in the MO-injected side of the spinal cords” value in [2] is reported as “significant increase”.
As for “xSema3A-A-MO: antisense morpholino oligonucleotide against xSema3A mRNA (SEQ ID NO: 8) (antisense ATGCAATCCAGGTCAGAGAGCCCAT; all phosphorodiamidate morpholino (PMO))”, in [1], the “MAP2-IR in the MO-injected side of spinal cords” value is “significantly reduced”. The “expression of xSema3A in the MO-injected side” value in the data set with xSema3A is “reduced significantly”. Also, the “expression of xCav2.3α1E in the MO-injected side” value with xCav2.3α1E (stage 34) is on record as “reduced markedly”.
On to ω-conotoxin GVIA, for which the “MAP2-IR / dendrite formation” value in [1] (in vivo) is given as “no significant effect”. The “Sema3A-induced conversion” value with cultured xSCINs is given as “neither L-types (nimodipine) nor N-types (ω-conotoxin GVIA) prevented the conversion”. The “tau-1-IR after local administration into the spinal cord” value in data set [2] is “neither nimodipine (FIG. 6F and bottom panel, labeled f; FIG. 6G) nor w-conotoxin GVIA (FIG. 6G) had significant effect”.
